In a melting point compilation (Tetko et al.; mined from patent text by program, amines drawn as free bases though some values may be those of a salt) one finds melting point data, which are given here for 88 molecules.

Where only a bound is given, the exact number is not on record here.

By melting point is commonly meant the temperature, or range, at which the solid turns liquid. On to `COc1cccc(OC)c1-c1ccc(CC(NC(=O)Nc2ccccc2S(=O)(=O)c2ccccc2)C(=O)O)cc1` (stereo not drawn), for which the melting point turned out to be 119 °C.

The molecule `COc1ccc(CNC(=O)c2c(-c3ccncc3)c(-c3ccc(F)cc3)nn2C)cc1` showed a melting point of 162 to 165 °C.

Turning to `Cn1c(C#N)c(F)n(-c2ccc(Cl)cc2)c1=O`, the melting point amounted to 105 °C.

Regarding `CC1(C)CCc2cccc3c(-c4ccc(F)cc4)c(C=CC4CC(O)CC(=O)O4)n1c23` (stereo not drawn), the melting point turned out to be 166 °C.

Regarding `CN(C)CCCSC1=C(C#N)C(c2ccccn2)(c2ccccn2)C(=O)N1`, the melting point was 184 to 185 °C.

In turn, `Cc1ccc(CNCCOc2cccc3[nH]c(=S)[nH]c23)cc1` showed a melting point of more than 250 °C.

As for `O=C(Nc1ccc2cc(CN3CCCC3)cnc2c1)c1ccc(-c2ccc(F)cc2)cc1`, the melting point lay within 210 to 212 °C.

Turning to `CCCn1nc2c(N)nc3ccccc3c2c1CC(C)(C)NC(=O)c1cccnc1`, the melting point fell in the range of 203 to 205 °C.

Molecule `C=CC#CCn1c(-c2ccccc2)nc(C(F)(F)F)c(CC)c1=O` showed a melting point of 104 to 106 °C.

In the case of `CC(C)(C)C(=O)Nc1c(SC(F)(F)F)c(C#N)nn1-c1c(Cl)cc(C(F)(F)F)cc1Cl`, the melting point lay in the range of 172 to 174 °C.

`CS(=O)(=O)c1cc(OC[C@@H](O)CN[C@H]2CC[C@H](c3ccc(C(=O)N4Cc5ccccc5C4)cc3)CC2)ccc1O` showed a melting point of 110 °C.

The molecule `CSc1ccc(NC(=O)N(O)C2CCCCC2)cc1` registered a melting point of 151 to 153 °C.

In turn, `O=[N+]([O-])C1=Cc2cc3c(cc2OC1)OCO3` showed a melting point of 139 °C.

In turn, `O=C1C2=C(SCCO2)C(=O)N1c1ccc2ccc(Cl)nc2n1` had a melting point of 264 °C.

`Cc1ccccc1C(C#N)=C1C=CC(=NOP(=O)(c2ccccc2)c2ccccc2)S1` gave a melting point of 165 to 167 °C.

For `CCn1c(=O)n(O)c(=O)c2cc(F)c(N3CCCC3)cc21`, the melting point fell in the range of 170 to 171 °C.

The molecule `CCCCCCc1cc(CO)c(-c2ccccc2)c(-c2ccccc2)c1CO` came in with a melting point of 136 to 137 °C.

Molecule `NC(=O)c1cccc(OCc2cccc(Br)c2)c1` gave a melting point of 129 to 131 °C.

For the molecule `Nc1nc(-c2cc(Cl)ccc2Cl)nc(N2CCC(O)(c3ccccc3)CC2)n1`, the melting point fell in the range of 176 to 178 °C.

Consider `COc1cc(Nc2c(C#N)cnc3cc(-c4cc(CN5CCOCC5)c(CN5CCOCC5)s4)ccc23)c(Cl)cc1Cl`, for which the melting point fell in the range of 118 to 125 °C.

In turn, `Cc1noc(C)c1C(=O)Nc1ccc(-n2nc(C3CC3)cc2C2CC2)cc1` came in with a melting point of 115 to 119 °C.

Turning to `O=C(O)CCc1cc2cc(Cl)ccc2n1S(=O)(=O)c1ccc2c(c1)OCO2`, the melting point was determined as 207 °C.

On to `O=C(Nc1ccc(OC(F)(F)F)cc1)N1CC(c2cc(C(F)(F)F)ns2)C(c2ccc(Cl)cc2)=N1` (stereo not drawn), for which the melting point lay within 101 to 104 °C.

For the molecule `COc1ccc(-c2cnn3c(-c4cccc(NC(=O)CC(C)C)c4)ccnc23)cc1C=O`, the melting point lay in the range of 187 to 189 °C.

`NCCSc1cc(N)c([N+](=O)[O-])cc1N` registered a melting point of 149 °C.

In turn, `O=C(O)Cc1ccc(S(=O)c2ccc(Cl)cc2)cc1` (stereo not drawn) showed a melting point of 139 to 141 °C.

Take `CC1CCC2(C)C(=CCC3C4CCC(=O)C4(C)CCC32)C1` (stereo not drawn): the melting point lay within 148 to 150 °C.

Molecule `CCn1cc(C(=O)O)c(=O)c2cc(F)c(N3CCNCC3)c(C)c21` registered a melting point of 153 to 156 °C.

For the molecule `CCCCCCCNC(=O)N(CCC)c1cccc(-c2ccc(CCC(=O)O)cc2)c1`, the melting point was 79 °C.

The molecule `CCOc1ccc2ccccc2c1C(=O)NC(Cc1ccc(C(F)(F)F)cc1)C(=O)c1ccc(F)cc1` (stereo not drawn) returned a melting point of 188 to 189 °C.

Take `CCCCc1cc(=O)c2ccccc2n1Cc1ccc(-c2ccccc2C(=O)O)cc1`: the melting point was more than 260 °C.

For `O=[N+]([O-])c1ccc(N2CCN(CCCCCCCCCCCO)CC2)cc1`, the melting point worked out at 118 °C.

In the case of `CNc1nc(-c2cccc(N)c2)c2cc(OC)c(OC)cc2n1`, the melting point was 197 to 199 °C.

In turn, `CCCCCC(=O)CCC(C)=O` yielded a melting point of 18 °C.

`CCCc1nn(C)c2c(=O)[nH]c(-c3cc([N+](=O)[O-])cnc3OC3CCC3)nc12` yielded a melting point of 212 to 214 °C.

The molecule `Cc1ccc2oc(=O)c(=O)oc2c1` yielded a melting point of 121 to 123 °C.

`CN(CCc1ccc2c(c1)oc(=O)n2C)Cc1ccccc1` displayed a melting point of 72 to 73 °C.

Consider `COCCOCC(=O)Nc1cccc2c1C1(COc3cc4c(cc31)OCCO4)C(=O)N2C` (stereo not drawn), for which the melting point was in the range of 122 to 123 °C.

Take `CC(C)=CCNc1ncnc2nc(N(C)C)[nH]c12`: the melting point was 246 to 249 °C.

`CN1C(=O)C2(COc3cc4c(cc32)CCO4)c2ccccc21` (stereo not drawn) showed a melting point of 187 to 190 °C.

As to `Nc1ccc(-c2cccc(Cl)c2)cc1C(O)(C1CC1)C1CC1`, the melting point lay in the range of 90 to 92 °C.

As for `COCc1cc2c(N=C=S)cccc2cn1`, the melting point is 88 °C.

In the case of `c1ccc(C(c2ccccc2)c2ccncc2)cc1`, the melting point was 124 to 126 °C.

`CC1(O)CN(c2c(F)cc3c(=O)c(C(=O)O)cn(C4CC4)c3c2F)C1` showed a melting point of 290 to 294 °C.

In the case of `COC(=O)c1ccc(NC(=O)CSC(C)=O)cc1`, the melting point was in the range of 137 to 139 °C.

Take `CS(=O)(=O)c1ccc(-c2cc(C(F)(F)F)nn2-c2ccc(C#N)cc2)cc1`: the melting point fell in the range of 140 to 142 °C.

The molecule `CN1C(=O)[C@H](NC(=O)/C=C/c2ccccc2Cl)N=C(c2ccccc2)c2ccccc21` displayed a melting point of 128 to 131 °C.

With `CCOC(=O)c1ncn(-c2nncs2)c1S(N)(=O)=O`, the melting point lay in the range of 168 to 171 °C.

`CN(C)C(=O)N1Cc2c(-c3noc(C4CC4)n3)ncn2-c2cccc(F)c21` had a melting point of 194 to 195 °C.

As for `COC(=O)[C@@H]1CCCN1S(=O)(=O)c1ccc(Cl)c(COc2cccc3c(C)cc(C)nc23)c1OC`, the melting point was in the range of 66 to 70 °C.

For the molecule `O=S(=O)(c1ccncc1)C1CCNCC1`, the melting point lay within 88 to 91 °C.

For `CC#CCOc1ccc(S(=O)[C@@H](C(=O)NO)c2ccc(-c3cccs3)cc2)cc1` (stereo partly drawn), the melting point turned out to be 158 °C.

Molecule `COc1ccc2cc(CO)ccc2c1Br` yielded a melting point of 85 to 87 °C.

The molecule `CCN(CC)CCOc1ccc(Nc2ncc3c(=O)n(Cc4ccc(OC)cc4)c(=O)n(C(C)C)c3n2)cc1` gave a melting point of 139 to 141 °C.

`CCOc1c2c(nc3c1cnn3CC)C(=O)c1ccccc1CC2`: the melting point was in the range of 150 to 152 °C.

For `CC(=O)c1ccc(-c2ccc(S(C)(=O)=O)cc2)o1`, the melting point is 160 to 164 °C.

As for `Nc1ccc(N2C(=O)c3ccc(Cl)cc3C2=O)c(CO)c1`, the melting point fell in the range of 228 to 230 °C.

On to `CN1CCN(c2ccccc2C=CC(=O)Nc2ccc(C(F)(F)F)cc2)CC1`, for which the melting point fell in the range of 207 to 209 °C.

For the molecule `C=CCn1c2c(ccc1=O)C(NCCc1ccccc1)CCC2` (stereo not drawn), the melting point was in the range of 60 to 62 °C.

Take `CNCc1cn(S(=O)(=O)c2ccccc2)c(-c2cccnc2F)c1F`: the melting point turned out to be 128 °C.

For the molecule `CCCOC(=O)c1c(CN2CCCCC2)nc2cc(OC)c(OC)cc2c1-c1ccc(OC)c(OC)c1`, the melting point fell in the range of 129 to 131 °C.

In turn, `CC(C)C[C@H](NC(=O)[C@@H]1CCC(=O)O1)C(=O)OC(C)(C)C` gave a melting point of 79 to 81 °C.

In turn, `O=C1c2c(cc(O)c(Cl)c2Cl)CC1c1ccccc1` (stereo not drawn) displayed a melting point of 250 to 252 °C.

In turn, `CCC(CC)c1ccc(Cl)c2nc3n(c12)CCN3C(=O)c1c(C)cc(C)cc1C` yielded a melting point of 234 to 236 °C.

`CC(=O)N1CCC(Oc2ccc([N+](=O)[O-])cc2)(c2ccccc2)CC1` came in with a melting point of 145 to 150 °C.

As for `O=c1nc(-c2cccc(SCc3ccccc3)n2)sc2ccccc12`, the melting point lay in the range of 227 to 228 °C.

For the molecule `CC(=O)c1cc(N(C)C)ccc1NC(=O)c1ccccc1OCc1ccccc1`, the melting point fell in the range of 132 to 134 °C.

The molecule `CN(C)c1ccc(NC(=O)N(C)c2cccc(-c3ccc(CC4SC(=O)NC4=O)cc3)c2)cc1` (stereo not drawn) yielded a melting point of 102 °C.

As for `CC(C)C1=C(c2ccc(F)cc2)C(=O)C(C(C)C)=C(C(C)C)C1=O`, the melting point was 122 to 124 °C.

On to `O=C1C=CC(O)(c2cc3ccccc3o2)C=C1`, for which the melting point was in the range of 106 to 108 °C.

For `CNS(=O)(=O)c1ccc(C(=O)C=Cc2cc(-c3cc4ccccc4n3C)c(OC)cc2OC)cc1`, the melting point was 129 to 131 °C.

On to `Nc1nc2ccccc2n1-c1cccc(-c2cscc2CO)c1`, for which the melting point lay in the range of 106 to 108 °C.

Consider `CCCCCCCc1ccc(-c2ccc(-c3cc(F)cc(F)c3)cc2)nc1`, for which the melting point fell in the range of 185 to 186 °C.

The molecule `CC1(C)C(C(=O)Nc2ccccc2)C1(C)C` registered a melting point of 149 °C.

In turn, `CCOC(=O)c1c(-c2ccc(OC)c(OC)c2)c2cc(C)ccc2n(C)c1=O` came in with a melting point of 109 to 110 °C.

For the molecule `CCCCCCCCCCCCCCOc1ccc(CC(=O)Cl)cc1OC`, the melting point fell in the range of 56 to 57 °C.

For `Oc1ccc(-c2n[nH]c3c2Cc2ccccc2-3)cc1`, the melting point lay in the range of 266 to 268 °C.

`OCCOCCn1ccc2ncnc(Nc3ccc(OCc4cccc(F)c4)c(Cl)c3)c21` showed a melting point of 168 to 169 °C.

For `CC(=O)Nc1cc(Cl)c(C)cc1Br`, the melting point lay within 154 to 155 °C.

Molecule `C/C(=C(\C#N)C(N)=S)N1CCCN(c2ccc(Br)cc2)CC1` showed a melting point of 152 to 155 °C.

As for `O=C(c1n[nH]c2c(=O)[nH]c3cc(Cl)ccc3c(=O)c12)N(O)Cc1ccccc1`, the melting point is 282 to 285 °C.

In the case of `COc1ccc(S(=O)(=O)Nc2c(Cl)cncc2Cl)c2c1oc1ccccc12`, the melting point was in the range of 242 to 244 °C.

For the molecule `CCOC(=O)c1cc2cc(-c3ccc(C(C)=NO)cc3)ccc2o1`, the melting point lay within 220 to 222 °C.

Take `CN1[C@@H](c2cccc(I)c2)c2ccccc2S1(=O)=O`: the melting point was found to be 156 °C.

In the case of `Cc1c(C#N)c(-c2ccc(C#N)cc2)c(C)n1Cc1cnc(Cl)c(CO)c1`, the melting point is 147 to 148 °C.

For `O=C1[C@H]2C[C@H](F)CN2C(=O)N1c1cc(NS(=O)(=O)CCl)c(Cl)cc1F`, the melting point was 147 to 151 °C.

`COC(=O)NC(C#N)Cc1ccc(OC)c(OC2CCCC2)c1` (stereo not drawn) came in with a melting point of 121 to 122 °C.

On to `Cc1c(NC(=O)CC(C)(C)C)cc2c(c1C)OCC2(C)c1ccc(C(C)C)cc1` (stereo not drawn), for which the melting point lay in the range of 132 to 133 °C.
